Laboratory results from ChEMBL document CHEMBL1201862, “PubChem BioAssay data set” (2004).
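Where inhibition never reached the appropriate level, the endpoint shown equals the highest concentration tested. Otherwise, values were interpolated linearly from a five-concentration, 48-hour dose response in 96-well plates. The concentration for 50% growth inhibition is given as GI50.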 Active and inactive are the calls of the source. Cut-off read from the data, not from the text of the source: active = GI50 up to about 1.1 µM and inactive = higher.

Key:
Test in all cases: growth of human tumour cells (NCI), 48 h
[1] = test system: CCRF-CEM
[2] = test system: OVCAR-5
[3] = test system: EKVX
[4] = test system: SK-MEL-28
[5] = test system: 786-0
[6] = test system: SK-OV-3
[7] = test system: OVCAR-8
[8] = test system: SNB-75
[9] = test system: HOP-62
[10] = test system: SK-MEL-5
[11] = test system: SR
[12] = test system: SF-295
[13] = test system: K562
[14] = test system: HT-29
[15] = test system: SW-620
[16] = test system: HL-60
[17] = test system: MOLT-4
[18] = test system: KM-20L2
[19] = test system: HCT-15
[20] = test system: HOP-92
[21] = test system: NCI-H23
[22] = test system: SK-MEL-2
[23] = test system: CAKI-1
[24] = test system: SF-268
[25] = test system: Malme-3M
[26] = test system: KM12
[27] = test system: NCI-H460
[28] = test system: HOP-18
[29] = test system: SN12C
[30] = test system: RXF 631
[31] = test system: NCI-H226
[32] = test system: HCT-116
[33] = test system: UACC-257
[34] = test system: DMS-114
[35] = test system: A498
[36] = test system: IGROV-1
[37] = test system: M14
[38] = test system: A549
[39] = test system: LOX IMVI
[40] = test system: UO-31
[41] = test system: M19-MEL
[42] = test system: LXFL 529
[43] = test system: RPMI-8226
[44] = test system: U-251
[45] = test system: SNB-19
[46] = test system: XF498
[47] = test system: SNB-78
[48] = test system: OVCAR-4
[49] = test system: ACHN
[50] = test system: TK-10
[51] = test system: COLO 205
[52] = test system: SF-539
[53] = test system: DMS-273
[54] = test system: HCC 2998
[55] = test system: UACC-62
[56] = test system: NCI-H522
[57] = test system: OVCAR-3
[58] = test system: DLD-1
[59] = test system: RXF 393

## COc1cc2c(cc1OC)CC(=O)Nc1cc(OC)c(OC)cc1CC2
[1]
  GI50: 51.2 µM (inactive)
[2]
  GI50: > 83.8 µM (inactive)
[3]
  GI50: > 100 µM (inactive)
[4]
  GI50: > 78.3 µM (inactive)
[5]
  GI50: 49.2 µM (inactive)
[6]
  GI50: 38.6 µM (inactive)
[7]
  GI50: 53.8 µM (inactive)
[8]
  GI50: > 59.2 µM (inactive)
[9]
  GI50: 55.2 µM (inactive)
[10]
  GI50: 18.5 µM (inactive)
[11]
  GI50: 5.74 µM (inactive)
[12]
  GI50: 30.3 µM (inactive)
[13]
  GI50: 24 µM (inactive)
[14]
  GI50: 37 µM (inactive)
[15]
  GI50: 47.9 µM (inactive)
[16]
  GI50: 20.8 µM (inactive)
[17]
  GI50: 52.5 µM (inactive)
[18]
  GI50: 48.4 µM (inactive)
[19]
  GI50: 55 µM
[20]
  GI50: > 80.9 µM (inactive)
[21]
  GI50: > 82.6 µM (inactive)
[22]
  GI50: 79.8 µM (inactive)
[23]
  GI50: 68.2 µM (inactive)
[24]
  GI50: 80.9 µM (inactive)
[25]
  GI50: 20.8 µM (inactive)
[26]
  GI50: 43.6 µM (inactive)
[27]
  GI50: 39.3 µM (inactive)
[28]
  GI50: > 100 µM (inactive)
[29]
  GI50: 45.9 µM (inactive)
[30]
  GI50: > 75.9 µM (inactive)
[31]
  GI50: 79.1 µM (inactive)
[32]
  GI50: 49 µM (inactive)
[33]
  GI50: > 53.7 µM (inactive)
[34]
  GI50: 24.3 µM (inactive)
[35]
  GI50: 44.5 µM (inactive)
[36]
  GI50: > 85.9 µM (inactive)
[37]
  GI50: 36.1 µM (inactive)
[38]
  GI50: 63 µM (inactive)
[39]
  GI50: > 82.4 µM (inactive)
[40]
  GI50: 61.9 µM (inactive)
[41]
  GI50: 31.8 µM (inactive)
[42]
  GI50: > 73.3 µM (inactive)
[43]
  GI50: 2.89 µM (inactive)
[44]
  GI50: 54.7 µM (inactive)
[45]
  GI50: 99.8 µM (inactive)
[46]
  GI50: > 100 µM (inactive)
[47]
  GI50: > 95.5 µM (inactive)
[48]
  GI50: > 53.5 µM (inactive)
[49]
  GI50: > 100 µM (inactive)
[50]
  GI50: > 77.4 µM (inactive)
[51]
  GI50: 38.2 µM (inactive)
[52]
  GI50: 33.2 µM (inactive)
[53]
  GI50: 24.8 µM (inactive)
[54]
  GI50: 97.1 µM (inactive)
[55]
  GI50: 36.1 µM (inactive)
[56]
  GI50: 17.3 µM (inactive)
[57]
  GI50: 43.9 µM (inactive)
[58]
  GI50: 40.3 µM (inactive)

## Cc1ccc(-c2cc(=O)c3cc(C)c(C)c(C(=O)O)c3o2)cc1N
[1]
  GI50: > 100 µM (inactive)
[2]
  GI50: > 100 µM (inactive)
[3]
  GI50: > 100 µM (inactive)
[4]
  GI50: > 100 µM (inactive)
[5]
  GI50: > 100 µM (inactive)
[6]
  GI50: > 100 µM (inactive)
[7]
  GI50: > 100 µM (inactive)
[8]
  GI50: > 100 µM (inactive)
[10]
  GI50: > 100 µM (inactive)
[12]
  GI50: > 100 µM (inactive)
[13]
  GI50: > 100 µM (inactive)
[14]
  GI50: > 100 µM (inactive)
[15]
  GI50: > 100 µM (inactive)
[17]
  GI50: > 100 µM (inactive)
[18]
  GI50: > 100 µM (inactive)
[19]
  GI50: > 100 µM
[21]
  GI50: > 100 µM (inactive)
[22]
  GI50: > 100 µM (inactive)
[23]
  GI50: > 100 µM (inactive)
[24]
  GI50: > 100 µM (inactive)
[25]
  GI50: > 100 µM (inactive)
[26]
  GI50: > 100 µM (inactive)
[27]
  GI50: > 100 µM (inactive)
[28]
  GI50: > 100 µM (inactive)
[29]
  GI50: > 100 µM (inactive)
[30]
  GI50: > 100 µM (inactive)
[31]
  GI50: > 100 µM (inactive)
[32]
  GI50: > 100 µM (inactive)
[33]
  GI50: > 100 µM (inactive)
[34]
  GI50: > 100 µM (inactive)
[36]
  GI50: > 100 µM (inactive)
[59]
  GI50: > 100 µM (inactive)
[37]
  GI50: > 100 µM (inactive)
[38]
  GI50: > 100 µM (inactive)
[39]
  GI50: > 100 µM (inactive)
[40]
  GI50: > 100 µM (inactive)
[41]
  GI50: > 100 µM (inactive)
[42]
  GI50: > 100 µM (inactive)
[43]
  GI50: > 100 µM (inactive)
[44]
  GI50: > 100 µM (inactive)
[45]
  GI50: > 100 µM (inactive)
[46]
  GI50: > 100 µM (inactive)
[47]
  GI50: > 100 µM (inactive)
[48]
  GI50: > 100 µM (inactive)
[49]
  GI50: > 100 µM (inactive)
[50]
  GI50: > 100 µM (inactive)
[51]
  GI50: > 100 µM (inactive)
[52]
  GI50: > 100 µM (inactive)
[55]
  GI50: > 100 µM (inactive)
[56]
  GI50: > 100 µM (inactive)
[57]
  GI50: > 100 µM (inactive)
[58]
  GI50: > 100 µM (inactive)
